Patent US20230218573A1, “INDOLE COMPOUNDS FOR THE TREATMENT OF NEURODEGENERATIVE DISEASES” (GALYAN BIO, INC., priority 2020, published 2023)
Entries after “also recorded” stand apart in the source; their conditions may differ.

Legend:
[1] = system: STHdh 111/111 striatal cells; assay: Cell viability (CellTiter Glo) of heat shocked STHdh 111/111 striatal cells; format: cell-based, mouse
[2] = system: Htt14A2.6 PC12 cells (mHttex1-GFP); assay: mHTT aggregation by filter retardation assay in Htt14A2.6 PC12 cells; format: cell-based; conditions: 24 hour treatment, different concentrations
Experimental: Compounds from the Biacore screening were selected for measurement of aggregation in a cell model Htt14A2.6 PC12. Htt14A2.6 PC12 cells express a GFP- tagged 97Q mHtt exon 1 fusion protein (mHttex1-GFP) in the presence of ponasterone A. Htt14A2.6 PC12 cells were grown in medium containing 5 µM ponasterone A for 20 hours prior to treatment with the compounds. Htt14A2.6 PC12 cells were plated at 50~60% confluency. Compound 22 was tested at a final concentration of 80 nM, 400 nM and 10 µM in cell culture medium for 24 hours. Htt14A2.6 PC12 cells were harvested, rinsed, homogenized in cold phosphate-buffered saline containing protease inhibitor cocktail, and centrifuged at 16000 g for 30 min at 4° C. twice. About 25 µg total protein of each sample was resolved in 8% SDS PAGE, transferred onto PVDF membrane, blotted with an anti-GFP antibody, and visualized by ECL detection. mHTT aggregates were quantified from the cell lysates by filter retardation assay (Wanker, E.E., et al., Methods Enzymol (1999); 309: 375-386).

## Cc1[nH]c2ccc(C(=O)NCCN(C(C)C)C(C)C)cc2c1C [Compound 22]
[1]; Mus musculus, STHdh 111/111, 10 µM, 48 hours treatment, read-out: Cell Viability striatal cells 3h heat shocked
  viability at 10 µM: 102%
[1]; STHdh 111/111, 48 hours after 3 hours heat shock
  cell viability in comparison to pre-heat shock cell viability: 125%
[1]; STHdh 111/111 after heat shock, versus STHdh 7/7 control cells
  cell viability at 24 hours after treatment: almost equivalent to the cell viability of STHdh 7/7 control cells
[2]
  reduction of mHTT aggregation (filter retardation): A reduction of aggregation of Htt14A2.6 PC12 was observed; also recorded: A reduction of mHTT in Htt14A2.6 PC12 cells was observed
